Measured values: PubChem BioAssay (NCI)
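Values below derive from 48-hour exposures of cells grown in 96-well plates, with endpoints linearly interpolated between the two concentrations bracketing the appropriate inhibition level. At the TGI there is no net growth.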

What was measured:
Assay in all cases: growth of human tumour cells (NCI), 48 h
NCI-H23 lung = tested on: NCI-H23 lung
MDA-MB-231 breast = tested on: MDA-MB-231 breast
A498 renal = tested on: A498 renal
IGROV1 ovarian = tested on: IGROV1 ovarian
NCI/ADR-RES ovarian = tested on: NCI/ADR-RES ovarian
OVCAR-3 ovarian = tested on: OVCAR-3 ovarian
ACHN renal = tested on: ACHN renal
MALME-3M melanoma = tested on: MALME-3M melanoma
HOP-92 NSCLC = tested on: HOP-92 NSCLC
MDA-N = tested on: MDA-N
SNB-19 CNS = tested on: SNB-19 CNS
KM12 colon = tested on: KM12 colon
MOLT-4 leukemia = tested on: MOLT-4 leukemia
UACC-257 melanoma = tested on: UACC-257 melanoma
SN12C renal = tested on: SN12C renal
K-562 leukemia = tested on: K-562 leukemia
PC-3 prostate = tested on: PC-3 prostate
U251 CNS = tested on: U251 CNS
BT-549 breast = tested on: BT-549 breast
NCI-H460 lung = tested on: NCI-H460 lung
NCI-H522 lung = tested on: NCI-H522 lung
HOP-62 NSCLC = tested on: HOP-62 NSCLC
NCI-H226 lung = tested on: NCI-H226 lung
OVCAR-4 ovarian = tested on: OVCAR-4 ovarian
RXF 393 renal = tested on: RXF 393 renal
CAKI-1 renal = tested on: CAKI-1 renal
UO-31 renal = tested on: UO-31 renal
EKVX NSCLC = tested on: EKVX NSCLC
LOX IMVI melanoma = tested on: LOX IMVI melanoma
HL-60(TB) leukemia = tested on: HL-60(TB) leukemia
T-47D breast = tested on: T-47D breast
HCT-116 colon = tested on: HCT-116 colon
SF-295 CNS = tested on: SF-295 CNS
SK-MEL-2 melanoma = tested on: SK-MEL-2 melanoma
SW-620 colon = tested on: SW-620 colon
786-0 renal = tested on: 786-0 renal
OVCAR-5 ovarian = tested on: OVCAR-5 ovarian
UACC-62 melanoma = tested on: UACC-62 melanoma
HCT-15 colon = tested on: HCT-15 colon
SR leukemia = tested on: SR leukemia
TK-10 renal = tested on: TK-10 renal
OVCAR-8 ovarian = tested on: OVCAR-8 ovarian
M14 melanoma = tested on: M14 melanoma
SK-MEL-28 melanoma = tested on: SK-MEL-28 melanoma
SF-268 CNS = tested on: SF-268 CNS
HT29 colon = tested on: HT29 colon
SK-MEL-5 melanoma = tested on: SK-MEL-5 melanoma
MDA-MB-435 = tested on: MDA-MB-435
A549 NSCLC = tested on: A549 NSCLC
HS 578T breast = tested on: HS 578T breast
RPMI-8226 leukemia = tested on: RPMI-8226 leukemia
COLO 205 colon = tested on: COLO 205 colon
CCRF-CEM leukemia = tested on: CCRF-CEM leukemia
MCF7 breast = tested on: MCF7 breast
SNB-75 CNS = tested on: SNB-75 CNS
HCC-2998 colon = tested on: HCC-2998 colon
DU-145 prostate = tested on: DU-145 prostate
SK-OV-3 ovarian = tested on: SK-OV-3 ovarian
SF-539 CNS = tested on: SF-539 CNS

c1ccc2c(c1)nnn2CN1CCOCC1
TGI (NCI-H23 lung): > 100 µM | TGI (MDA-MB-231 breast): > 100 µM | TGI (A498 renal): > 100 µM | TGI (IGROV1 ovarian): > 100 µM | TGI (NCI/ADR-RES ovarian): > 100 µM | TGI (OVCAR-3 ovarian): 93.1 µM | TGI (ACHN renal): > 100 µM | TGI (MALME-3M melanoma): > 100 µM | TGI (HOP-92 NSCLC): > 100 µM | TGI (MDA-N): > 100 µM | TGI (SNB-19 CNS): > 100 µM | TGI (KM12 colon): > 100 µM | TGI (MOLT-4 leukemia): > 100 µM | TGI (UACC-257 melanoma): > 100 µM | TGI (SN12C renal): > 100 µM | TGI (K-562 leukemia): > 100 µM | TGI (PC-3 prostate): > 100 µM | TGI (U251 CNS): > 100 µM | TGI (BT-549 breast): > 100 µM | TGI (NCI-H460 lung): > 100 µM | TGI (NCI-H522 lung): > 100 µM | TGI (HOP-62 NSCLC): > 100 µM | TGI (NCI-H226 lung): > 100 µM | TGI (OVCAR-4 ovarian): > 100 µM | TGI (RXF 393 renal): > 100 µM | TGI (CAKI-1 renal): > 100 µM | TGI (UO-31 renal): > 100 µM | TGI (EKVX NSCLC): > 100 µM | TGI (LOX IMVI melanoma): > 100 µM | TGI (HL-60(TB) leukemia): 63.6 µM | TGI (T-47D breast): > 100 µM | TGI (HCT-116 colon): > 100 µM | TGI (SF-295 CNS): > 100 µM | TGI (SK-MEL-2 melanoma): > 100 µM | TGI (SW-620 colon): > 100 µM | TGI (786-0 renal): > 100 µM | TGI (OVCAR-5 ovarian): > 100 µM | TGI (UACC-62 melanoma): > 100 µM | TGI (HCT-15 colon): > 100 µM | TGI (SR leukemia): 54.8 µM | TGI (TK-10 renal): > 100 µM | TGI (OVCAR-8 ovarian): > 100 µM | TGI (M14 melanoma): > 100 µM | TGI (SK-MEL-28 melanoma): > 100 µM | TGI (SF-268 CNS): > 100 µM | TGI (HT29 colon): > 100 µM | TGI (SK-MEL-5 melanoma): > 100 µM | TGI (MDA-MB-435): > 100 µM | TGI (A549 NSCLC): > 100 µM | TGI (HS 578T breast): > 100 µM

Cc1ccc(N=C2SC(=S)N(CCC[N+](C)(C)C)C2=Nc2ccc(C)cc2)cc1
TGI (NCI-H23 lung): 32.7 µM | TGI (MDA-MB-231 breast): 32.3 µM | TGI (A498 renal): 40.7 µM | TGI (IGROV1 ovarian): 26.6 µM | TGI (ACHN renal): 30.1 µM | TGI (MALME-3M melanoma): 41.9 µM | TGI (HOP-92 NSCLC): 31.6 µM | TGI (MDA-N): 28.5 µM | TGI (SNB-19 CNS): 27.7 µM | TGI (KM12 colon): 50.1 µM | TGI (MOLT-4 leukemia): 37.8 µM | TGI (UACC-257 melanoma): 32 µM | TGI (SN12C renal): 29.5 µM | TGI (K-562 leukemia): 32.9 µM | TGI (RPMI-8226 leukemia): 32 µM | TGI (PC-3 prostate): 28.3 µM | TGI (U251 CNS): 26.6 µM | TGI (BT-549 breast): 15.4 µM | TGI (NCI-H460 lung): 36.3 µM | TGI (COLO 205 colon): 87.6 µM | TGI (HOP-62 NSCLC): 52.7 µM | TGI (NCI-H226 lung): 47 µM | TGI (RXF 393 renal): 18 µM | TGI (UO-31 renal): 37.8 µM | TGI (CCRF-CEM leukemia): 58 µM | TGI (EKVX NSCLC): 38.5 µM | TGI (HL-60(TB) leukemia): 5.86 µM | TGI (T-47D breast): 18.7 µM | TGI (HCT-116 colon): 25.4 µM | TGI (SK-MEL-2 melanoma): 35.9 µM | TGI (SW-620 colon): 41.4 µM | TGI (786-0 renal): 30.3 µM | TGI (OVCAR-5 ovarian): 29.7 µM | TGI (UACC-62 melanoma): 22.3 µM | TGI (HCT-15 colon): 31.4 µM | TGI (SR leukemia): 27 µM | TGI (TK-10 renal): 36.8 µM | TGI (MCF7 breast): 48.3 µM | TGI (OVCAR-8 ovarian): 38.8 µM | TGI (M14 melanoma): 46.1 µM | TGI (SNB-75 CNS): 22.6 µM | TGI (SK-MEL-28 melanoma): 23.7 µM | TGI (HT29 colon): 32.9 µM | TGI (SK-MEL-5 melanoma): 27.5 µM | TGI (A549 NSCLC): 33.8 µM | TGI (HCC-2998 colon): 39.6 µM | TGI (HS 578T breast): 24.6 µM

CC(=O)NNc1nc(C)c(C(=O)/C=C/C=C/c2ccccc2)s1
TGI (NCI-H23 lung): > 100 µM | TGI (DU-145 prostate): > 100 µM | TGI (MDA-MB-231 breast): > 100 µM | TGI (A498 renal): > 100 µM | TGI (IGROV1 ovarian): > 100 µM | TGI (NCI/ADR-RES ovarian): > 100 µM | TGI (OVCAR-3 ovarian): > 100 µM | TGI (SK-OV-3 ovarian): > 100 µM | TGI (ACHN renal): > 100 µM | TGI (MALME-3M melanoma): > 100 µM | TGI (HOP-92 NSCLC): > 100 µM | TGI (MDA-N): > 100 µM | TGI (SNB-19 CNS): > 100 µM | TGI (KM12 colon): > 100 µM | TGI (MOLT-4 leukemia): > 100 µM | TGI (UACC-257 melanoma): > 100 µM | TGI (SN12C renal): > 100 µM | TGI (RPMI-8226 leukemia): > 100 µM | TGI (U251 CNS): > 100 µM | TGI (BT-549 breast): > 100 µM | TGI (NCI-H460 lung): > 100 µM | TGI (COLO 205 colon): > 100 µM | TGI (NCI-H522 lung): > 100 µM | TGI (HOP-62 NSCLC): > 100 µM | TGI (NCI-H226 lung): > 100 µM | TGI (OVCAR-4 ovarian): > 100 µM | TGI (CAKI-1 renal): > 100 µM | TGI (UO-31 renal): > 100 µM | TGI (CCRF-CEM leukemia): > 100 µM | TGI (EKVX NSCLC): > 100 µM | TGI (LOX IMVI melanoma): > 100 µM | TGI (HL-60(TB) leukemia): > 100 µM | TGI (T-47D breast): > 100 µM | TGI (HCT-116 colon): > 100 µM | TGI (SF-295 CNS): > 100 µM | TGI (SW-620 colon): > 100 µM | TGI (786-0 renal): > 100 µM | TGI (OVCAR-5 ovarian): > 100 µM | TGI (UACC-62 melanoma): > 100 µM | TGI (HCT-15 colon): > 100 µM | TGI (SR leukemia): > 100 µM | TGI (TK-10 renal): > 100 µM | TGI (MCF7 breast): > 100 µM | TGI (OVCAR-8 ovarian): > 100 µM | TGI (M14 melanoma): > 100 µM | TGI (SNB-75 CNS): > 100 µM | TGI (SK-MEL-28 melanoma): > 100 µM | TGI (SF-539 CNS): > 100 µM | TGI (SF-268 CNS): > 100 µM | TGI (HT29 colon): > 100 µM | TGI (SK-MEL-5 melanoma): > 100 µM | TGI (MDA-MB-435): > 100 µM | TGI (HCC-2998 colon): > 100 µM | TGI (HS 578T breast): > 100 µM
